Measurements reported in US8778966B2, “Quinolinone derivatives as PARP and tank inhibitors” (Janssen Pharmaceutica, NV, priority 2007, dated 2014).

Legend:
[1] = system: HCT116 cells; experiment: Mitotic arrest assay on HCT116 cells (phospho-histone H3 Ser10); format: cell-based, human; details: lowest active dose; for minimal effective concentration: Homo sapiens, HCT-116, HCT116 cells, read-out: Mitotic arrest HCT116 LAD (converted); for Mitotic arrest HCT116 LAD: HCT116 cells, the values are: pLAD (−log M lowest active dose)
Summary of the method: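 Seeded overnight, then compound-treated 6 h at 37 °C (≤0.1% DMSO); fixed, stained with Alexa Fluor 488 anti-phospho-H3 (Ser10) plus Hoechst 33342, imaged on InCell Analyzer 1000. Blank-subtracted signal divided by SD (sigma), triplicate; value is lowest dose giving sigma >5 (LAD).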

[2] = target: T1, Human PARP-1 enzyme (Homo sapiens, UniProt P09874); experiment: In vitro Scintillation Proximity Assay (SPA) for PARP-1 inhibitory activity; format: biochemical; details: read-out: in vitro SPA assay PARP-1 pIC50 (converted)
T1 construct: purchased Trevigen
Summary of the method: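 SPA assay: nicked-DNA-activated PARP-1 (0.1–0.2 μg/ml) ADP-ribosylates biotinylated histones (2 μg/ml) using [3H]-NAD+, 20 min at RT in Tris pH 8/DTT/MgCl2, stopped with 2 mM NAD+. Blank-subtracted cpm expressed as % control; IC50 by linear interpolation, reported as pIC50 (10−5 to 3×10−9 M tested).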

T1 sequence (P09874 whole entry): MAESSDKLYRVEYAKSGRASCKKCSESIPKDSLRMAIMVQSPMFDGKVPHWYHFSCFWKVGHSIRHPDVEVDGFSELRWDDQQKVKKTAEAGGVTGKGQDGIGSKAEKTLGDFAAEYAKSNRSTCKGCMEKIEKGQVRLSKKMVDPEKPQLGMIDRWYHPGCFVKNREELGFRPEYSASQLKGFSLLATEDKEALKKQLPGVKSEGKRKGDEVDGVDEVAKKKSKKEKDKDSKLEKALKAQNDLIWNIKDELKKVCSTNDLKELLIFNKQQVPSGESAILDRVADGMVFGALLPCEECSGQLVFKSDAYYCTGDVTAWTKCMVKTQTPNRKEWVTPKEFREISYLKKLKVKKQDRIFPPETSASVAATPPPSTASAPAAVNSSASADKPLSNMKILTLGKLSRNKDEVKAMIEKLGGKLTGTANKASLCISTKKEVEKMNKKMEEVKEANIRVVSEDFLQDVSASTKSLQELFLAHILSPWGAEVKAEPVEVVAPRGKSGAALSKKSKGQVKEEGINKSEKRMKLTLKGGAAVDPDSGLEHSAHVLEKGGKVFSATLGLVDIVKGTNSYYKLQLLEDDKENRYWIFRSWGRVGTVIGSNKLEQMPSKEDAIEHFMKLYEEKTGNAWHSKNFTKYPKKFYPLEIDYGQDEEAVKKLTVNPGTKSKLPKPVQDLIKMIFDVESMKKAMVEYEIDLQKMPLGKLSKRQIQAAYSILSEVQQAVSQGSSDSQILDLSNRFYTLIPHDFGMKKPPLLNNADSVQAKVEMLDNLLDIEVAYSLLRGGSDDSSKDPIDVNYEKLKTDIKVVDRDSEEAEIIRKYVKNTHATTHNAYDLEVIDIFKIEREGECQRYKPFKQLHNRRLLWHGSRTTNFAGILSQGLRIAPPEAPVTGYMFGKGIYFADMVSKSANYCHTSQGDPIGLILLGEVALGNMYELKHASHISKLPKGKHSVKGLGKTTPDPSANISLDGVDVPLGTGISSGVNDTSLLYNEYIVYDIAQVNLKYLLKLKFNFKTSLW

Structure (SMILES)	minimal effective concentration [1] [µM]	IC50 [2] [nM]	Mitotic arrest HCT116 LAD [1]
CCc1cc2ccc(C(C)(C#N)Cc3cccc(CN)c3)cc2[nH]c1=O (centres unmarked) [Compound 290]	0.3	50.1	
CCc1cc2ccc(C(C#N)(CC)Cc3ccccc3)cc2[nH]c1=O (centres unmarked) [Compound 32]	1	501	
COc1cc(OC)nc(CC(C)(C#N)c2ccc3cc(C)c(=O)[nH]c3c2)n1 (centres unmarked) [Compound 308]	0.1	631	
CCc1cc2cc(OC)c(C(C)(C#N)Cc3ccccc3)cc2[nH]c1=O (centres unmarked) [Compound 294]	3	251	
CCc1cc2ccc(C(C)(C#N)Cc3cccc(C#N)n3)cc2[nH]c1=O (single isomer, unassigned) [Compound 206]		50.1	5
CCc1cc2ccc([C@@](C)(C#N)Cc3cccc(C#N)c3)cc2[nH]c1=O (single isomer, unassigned) [Compound 268]	10	50.1	
CCc1cc2ccc(C(C)(C#N)Cc3cccc(C#N)n3)cc2[nH]c1=O (single isomer, unassigned) [Compound 207]		39.8	7
CCc1cc2ccc(C(C)(C#N)Cc3ccc(OC)nc3)cc2[nH]c1=O (centres unmarked) [Compound 352]	1	100	
CCc1c(Cl)c2ccc(C(C)(C#N)Cc3cccc(C#N)c3)cc2[nH]c1=O (centres unmarked) [Compound 293]	0.3	398	
COc1ccccc1-c1nc(CC(C)(C#N)c2ccc3cc(C)c(=O)[nH]c3c2)no1 (centres unmarked) [Compound 33]	1	1260	
CCc1cc2ccc(C(C)(C#N)Cc3cccc(C#C[Si](C)(C)C)n3)cc2[nH]c1=O (centres unmarked) [Compound 210]	1	398	
C=Cc1cccc(CC(C)(C#N)c2ccc3cc(CC)c(=O)[nH]c3c2)c1 (centres unmarked) [Compound 172]	0.3	100	
CCc1cc2ccc(C(C)(C#N)Cc3cccc(COC)n3)cc2[nH]c1=O (centres unmarked) [Compound 216]	1	398	
CCc1cc2ccc(C(C)(C#N)Cc3cccc(CCC#N)c3)cc2[nH]c1=O (centres unmarked) [Compound 169]		79.4	6
CCc1cc2ccc(C(C)(C#N)Cc3cc(OC)nc(OC)n3)cc2[nH]c1=O (centres unmarked) [Compound 358]	0.3	50.1	
CCc1cc2ccc(C(C)(C#N)CNCc3cccc(C#N)c3)cc2[nH]c1=O (centres unmarked) [Compound 301]	1	100	
CCc1cc2ccc(C(C)(C#N)Cc3nccn3CC)cc2[nH]c1=O (centres unmarked) [Compound 337]	1	398	
CCC[C@](C#N)(Cc1ccccc1)c1ccc2cc(CC)c(=O)[nH]c2c1 (single isomer, unassigned) [Compound 264]	10	398	
CCc1cc2ccc(C(C)(C#N)Cc3cccc(CNS(C)(=O)=O)c3)cc2[nH]c1=O (centres unmarked) [Compound 170]	3	79.4	
C#Cc1cccc(C[C@](C)(C#N)c2ccc3cc(CC)c(=O)[nH]c3c2)c1 [Compound 2]	10	126	
CCc1cc2ccc(C(C)(C#N)CC3CCc4ccccc4O3)cc2[nH]c1=O (centres unmarked) [Compound 399]	0.3	316	
CCc1cc2ccc(C(C)(C#N)Cc3nc(Cl)cc(OCCOC)n3)cc2[nH]c1=O (centres unmarked) [Compound 370]	1	200	
CC(C)c1cc2ccc(C(C)(C#N)Cc3ccccc3)cc2[nH]c1=O (centres unmarked) [Compound 38]	3.16	> 10000	
CCc1cc2ccc([C@](C)(C#N)[C@H](C)c3ccccc3)cc2[nH]c1=O [Compound 200]	0.3	251	
CCc1cc2ccc([C@](C)(C#N)Cc3cccc(C#N)c3)cc2[nH]c1=O (single isomer, unassigned) [Compound 269]	0.1	31.6	
CCc1cc2ccc(C(C)(C#N)Cc3cnc(OC)nc3OC)cc2[nH]c1=O (centres unmarked) [Compound 357]	0.3	79.4	
Cc1cc2ccc(C(C)(C#N)Cc3cccc(Cl)c3)cc2[nH]c1=O (centres unmarked) [Compound 37]	0.1	2000	
CCc1cc2ccc(C(C)(C#N)Cc3cc(OCCOC)nc(C)n3)cc2[nH]c1=O (centres unmarked) [Compound 363]	3	158	

Structure (SMILES)	minimal effective concentration [1] [µM]	IC50 [2] [nM]	Mitotic arrest HCT116 LAD [1]
CC(=O)c1cc2ccc(C(C)(C#N)Cc3ccccc3)cc2[nH]c1=O (centres unmarked) [Compound 39]	3.16	7940	
CCc1cc2ccc(C(C)(C#N)Cc3cccc(OCCOC)n3)cc2[nH]c1=O (centres unmarked) [Compound 219]	1	100	
CCc1cc2ccc(C(C)(C#N)Cc3cccc(C#N)n3)cc2[nH]c1=O (centres unmarked) [Compound 329]	0.3	79.4	
CCc1cc2ccc(C(C)(C#N)Cc3nccc(OC)n3)cc2[nH]c1=O (centres unmarked) [Compound 360]	1	100	
CCc1cc2ccc(C(C)(C#N)Cc3cccc(/C=C/S(C)(=O)=O)c3)cc2[nH]c1=O (centres unmarked) [Compound 292]	0.1	63.1	
CCC[C@@](C#N)(Cc1ccccc1)c1ccc2cc(CC)c(=O)[nH]c2c1 (single isomer, unassigned) [Compound 263]	1	631	
CCc1cc2ccc(C(C)(C#N)CCOc3cccc(C(F)(F)F)c3)cc2[nH]c1=O (centres unmarked) [Compound 274]	1	501	
CCc1cc2ccc(C(C)(C#N)Cc3cc(OC)ccn3)cc2[nH]c1=O (centres unmarked) [Compound 373]	1	100	
CCc1cc2ccc(C(C)(C#N)Cc3nc(C)cc(C)n3)cc2[nH]c1=O (centres unmarked) [Compound 368]	1	316	
C#Cc1cccc(CC(C)(C#N)c2ccc3cc(CC)c(=O)[nH]c3c2)n1 (centres unmarked) [Compound 211]	1	126	
Cc1cc2ccc(C(C)(C#N)Cc3cccc(C#N)c3)cc2[nH]c1=O (centres unmarked) [Compound 34]	0.1	794	
CCc1cc2ccc(C(C)(C#N)Cc3cc(OC)nc(C)n3)cc2[nH]c1=O (centres unmarked) [Compound 366]	0.3	126	
CCc1cc2ccc(C(C)(C#N)Cc3cccc(CN)n3)cc2[nH]c1=O (centres unmarked) [Compound 221]	3	79.4	
CCc1cc2cc(OCCOC)c(C(C)(C#N)Cc3cccc(C#N)c3)cc2[nH]c1=O (centres unmarked) [Compound 182]	10	158	
CCOc1cc(OCC)nc(CC(C)(C#N)c2ccc3cc(CC)c(=O)[nH]c3c2)n1 (centres unmarked) [Compound 309]	1	158	
CCc1cc2ccc(C(C)(C#N)Cc3cccc(C#CCO)c3)cc2[nH]c1=O (centres unmarked) [Compound 183]	0.1	63.1	
CCc1cc2ccc(C(C)(C#N)Cc3cccc(Br)n3)cc2[nH]c1=O (centres unmarked) [Compound 344]	0.3	63.1	
CCc1cc2ccc(C(C)(C#N)Cc3cc(OCCOC)nc(Cl)n3)cc2[nH]c1=O (centres unmarked) [Compound 367]	1	79.4	
CCc1cc2ccc(C(C)(C#N)Cc3cccc(OCCO)c3)cc2[nH]c1=O (centres unmarked) [Compound 262]	0.3	79.4	
CCc1cc2ccc(C(C)(C#N)Cc3cccc(C#CCOC)c3)cc2[nH]c1=O (centres unmarked) [Compound 297]	0.3	79.4	
CCc1cc2cc(F)c(C(C)(C#N)Cc3cccc(C#N)c3)cc2[nH]c1=O (centres unmarked) [Compound 175]	0.3	200	
CCc1cc2ccc(C(C)(C#N)CN(C)Cc3ccccc3)cc2[nH]c1=O (centres unmarked) [Compound 189]	1	398	
CCc1cc2ccc(C(C)(C#N)Cc3cccc(OC[C@@H](O)CO)c3)cc2[nH]c1=O (some centres unmarked) [Compound 56]	3	100	
CCCn1ccnc1CC(C)(C#N)c1ccc2cc(CC)c(=O)[nH]c2c1 (centres unmarked) [Compound 335]	3	251	
CCc1cc2ccc(C(C)(C#N)Cc3cccc(C#CCN(C)C)c3)cc2[nH]c1=O (centres unmarked) [Compound 298]	1	501	
CCc1cc2ccc(C(C)(C#N)Cc3cc(N(C)C)nc(Cl)n3)cc2[nH]c1=O (centres unmarked) [Compound 364]	1	158	
Cc1cc2ccc([C@@](C)(C#N)Cc3cccc(C#N)c3)cc2[nH]c1=O [Compound 35]	3.16	501	
